Legend:
[1] = target: Human immunodeficiency virus type 1 reverse transcriptase (Human immunodeficiency virus 1, UniProt Q72547)
Description: Inhibition of recombinant wild type HIV-1 His-tagged reverse transcriptase p66/p51 expressed in Escherichia coli JM109 using poly(rA)/oligo(dT)16 as template/primer incubated for 40 mins by pico-green based spectrofluorometric analysis

[2] = tested on: Human immunodeficiency virus 1; experiment: Antiviral activity against HIV1 3B infected in human MT4 cells assessed as virus-induced cytopathic effect incubated for 5 days by MTT assay; format: functional, organism-based; conditions: Human immunodeficiency virus 1, 3B, MT4, 120 h
[3] = in vitro; conditions: human, MT4 cells; MT4 cells infected with HIV1 3B K103N mutant
Description: Selectivity index, ratio of CC50 for cytotoxicity against human MT4 cells to EC50 for antiviral activity against HIV1 3B harbouring NNRTI K103N mutant infected in human MT4 cells

[4] = in vitro; conditions: human, MT4 cells; MT4 cells infected with HIV1 3B
Description: Selectivity index, ratio of CC50 for cytotoxicity against human MT4 cells to EC50 for antiviral activity against HIV1 3B infected in human MT4 cells

[5] = Cytotoxicity against human MT4 cells assessed as reduction in cell viability incubated for 5 days by MTT assay; format: cell-based
[6] = tested on: Human immunodeficiency virus 1; experiment: Antiviral activity against HIV1 3B harbouring NNRTI K103N mutant infected in human MT4 cells assessed as virus-induced cytopathic effect incubated for 5 days by MTT assay; format: functional, organism-based; conditions: Human immunodeficiency virus 1, 3B, MT4, 120 h

SMILES	IC50 [1] [µM]	EC50 [2] [µM]	selectivity ratio [3]	selectivity ratio [4]	CC50 at 120 h [5] [µM]	EC50 [6] [µM]
COc1cc2nc(Nc3ccc(C#N)cc3)nc(Nc3c(C)cc(/C=C/C#N)cc3C)c2cc1OC	0.55	0.0127	986	806	10.2	0.0104
COc1cc2nc([S+]([O-])CC(=O)Nc3ccccc3C(F)(F)F)nc(Nc3c(Cl)cc(/C=C/C#N)cc3Cl)c2cc1OC (stereo not given)		67.1		> 3	> 192	> 192
COc1cc2nc(SCC(=O)Nc3cccc(S(N)(=O)=O)c3)nc(Nc3c(Cl)cc(/C=C/C#N)cc3Cl)c2cc1OC		> 194		> 1	> 194	
COc1cc2nc([S+]([O-])CC(=O)Nc3cccc(S(N)(=O)=O)c3)nc(Nc3c(Cl)cc(/C=C/C#N)cc3Cl)c2cc1OC (stereo not given)		> 67.8		< 1	67.8	
COc1cc2nc(SCC(=O)Nc3cccc(Cl)c3)nc(Nc3c(Cl)cc(/C=C/C#N)cc3Cl)c2cc1OC		> 208		> 1	> 208	
COc1cc2nc([S+]([O-])CC(=O)Nc3cccc(F)c3)nc(Nc3c(Cl)cc(/C=C/C#N)cc3Cl)c2cc1OC (stereo not given)		0.237	137	40	9.55	0.0696
COc1cc2nc([S+]([O-])CC(=O)Nc3ccc([N+](=O)[O-])cc3)nc(Nc3c(Cl)cc(/C=C/C#N)cc3Cl)c2cc1OC (stereo not given)		0.0385	2990	2410	92.8	0.031
COc1cc2nc([S+]([O-])CC(=O)Nc3ccc([N+](=O)[O-])cc3)nc(Nc3c(C)cc(/C=C/C#N)cc3C)c2cc1OC (stereo not given)	0.011	0.0412	12100	4590	189	0.0157
COc1cc2nc([S+]([O-])CC(=O)Nc3c(C)cc(C)cc3C)nc(Nc3c(Cl)cc(/C=C/C#N)cc3Cl)c2cc1OC (stereo not given)		7.31		1	8.87	
COc1cc2nc([S+]([O-])CC(=O)Nc3cccc(C#N)c3)nc(Nc3c(Cl)cc(/C=C/C#N)cc3Cl)c2cc1OC (stereo not given)		0.0996	≥ 1840	≥ 706	≥ 70.3	0.0383
COc1cc2nc([S+]([O-])CC(=O)Nc3ccccc3[N+](=O)[O-])nc(Nc3c(Cl)cc(/C=C/C#N)cc3Cl)c2cc1OC (stereo not given)		> 199			> 199	
COc1cc2nc(SCC(=O)Nc3ccc(F)cc3)nc(Nc3c(C)cc(/C=C/C#N)cc3C)c2cc1OC		2.28	≥ 159	≥ 66	≥ 150	0.942
COc1cc2nc(SCC(=O)Nc3ccc(C(F)(F)F)cc3)nc(Nc3c(Cl)cc(/C=C/C#N)cc3Cl)c2cc1OC		20	> 50	> 10	> 197	3.91
COc1cc2nc([S+]([O-])CC(=O)Nc3ccc(C(F)(F)F)cc3)nc(Nc3c(C)cc(/C=C/C#N)cc3C)c2cc1OC (stereo not given)		0.45	210	116	52.2	0.249
COc1cc2nc([S+]([O-])CC(=O)Nc3ccc(C)cc3)nc(Nc3c(Cl)cc(/C=C/C#N)cc3Cl)c2cc1OC (stereo not given)		0.327	657	98	32.2	0.049
COc1cc2nc([S+]([O-])CC(=O)Nc3cccc(C(F)(F)F)c3)nc(Nc3c(Cl)cc(/C=C/C#N)cc3Cl)c2cc1OC (stereo not given)		1.27	35	17	21.8	0.626
O=C1Nc2ccc(Cl)cc2[C@@](C#CC2CC2)(C(F)(F)F)O1 [EFAVIRENZ]		0.0038			> 6.34	0.124
COc1cc2nc([S+]([O-])CC(=O)Nc3ccc(Cl)cc3)nc(Nc3c(Cl)cc(/C=C/C#N)cc3Cl)c2cc1OC (stereo not given)		0.0461	550	313	14.4	0.0263
COc1cc2nc(SCC(=O)Nc3ccc(C)cc3)nc(Nc3c(Cl)cc(/C=C/C#N)cc3Cl)c2cc1OC		> 2.53		< 1	2.54	
COc1cc2nc(Nc3ccc(C#N)cc3)nc(Nc3c(C)cc(/C=C/C#N)cc3F)c2cc1OC		0.0122	> 4720	> 4250	> 52	0.011
COc1ccccc1NC(=O)C[S+]([O-])c1nc(Nc2c(Cl)cc(/C=C/C#N)cc2Cl)c2cc(OC)c(OC)cc2n1 (stereo not given)		3.22	> 132	> 63	> 204	1.54

SMILES	IC50 [1] [µM]	EC50 [2] [µM]	selectivity ratio [3]	selectivity ratio [4]	CC50 at 120 h [5] [µM]	EC50 [6] [µM]
COc1cc2nc([S+]([O-])CC(=O)Nc3ccc(F)cc3)nc(Nc3c(C)cc(/C=C/C#N)cc3C)c2cc1OC (stereo not given)		0.131	833	209	27.4	0.0329
COc1cc2nc([S+]([O-])CC(=O)Nc3ccccc3F)nc(Nc3c(Cl)cc(/C=C/C#N)cc3Cl)c2cc1OC (stereo not given)		17	> 37	> 12	> 208	5.66
COc1cc2nc(SCC(=O)Nc3ccc(C(F)(F)F)cc3)nc(Nc3c(C)cc(/C=C/C#N)cc3C)c2cc1OC		5.28	> 87	> 40	> 211	2.41
COc1cc2nc(Nc3ccc(C#N)cc3)nc(Nc3c(F)cc(/C=C/C#N)cc3F)c2cc1OC		0.0411	355	156	6.4	0.0181
Cc1ccnc2c1NC(=O)c1cccnc1N2C1CC1 [NEVIRAPINE]		0.235			> 15	≥ 11.2
COc1cc2nc(SCC(=O)Nc3ccc(C#N)cc3)nc(Nc3c(C)cc(/C=C/C#N)cc3C)c2cc1OC	3.63	0.304	> 1130	> 746	> 227	0.201
COc1cccc(NC(=O)C[S+]([O-])c2nc(Nc3c(Cl)cc(/C=C/C#N)cc3Cl)c3cc(OC)c(OC)cc3n2)c1 (stereo not given)		2.37	≥ 439	≥ 70	≥ 167	0.465
COc1cc2nc([S+]([O-])CC(=O)Nc3cc([N+](=O)[O-])ccc3F)nc(Nc3c(Cl)cc(/C=C/C#N)cc3Cl)c2cc1OC (stereo not given)		8.08	> 32	> 24	> 194	6
COc1cc2nc([S+]([O-])CC(=O)Nc3ccc(C#N)cc3)nc(Nc3c(Cl)cc(/C=C/C#N)cc3Cl)c2cc1OC (stereo not given)		0.0582	≥ 4420	≥ 3240	≥ 188	0.0426
COc1cc2nc(SCC(=O)Nc3ccc([N+](=O)[O-])cc3)nc(Nc3c(C)cc(/C=C/C#N)cc3C)c2cc1OC	4	0.749	> 612	> 292	> 219	0.358
COc1cc2nc([S+]([O-])CC(=O)Nc3ccccc3C#N)nc(Nc3c(Cl)cc(/C=C/C#N)cc3Cl)c2cc1OC (stereo not given)		30.6	> 18	> 7	> 206	11.7
COc1cc2nc(SCC(=O)Nc3ccc(Cl)cc3)nc(Nc3c(Cl)cc(/C=C/C#N)cc3Cl)c2cc1OC		1.25	44	24	29.5	0.677
COc1cc2nc([S+]([O-])CC(=O)Nc3ccc(C(F)(F)F)cc3)nc(Nc3c(Cl)cc(/C=C/C#N)cc3Cl)c2cc1OC (stereo not given)		0.227	247	97	22	0.0889
COc1ccc(NC(=O)CSc2nc(Nc3c(C)cc(/C=C/C#N)cc3C)c3cc(OC)c(OC)cc3n2)cc1		2.75	> 302	> 82	> 225	0.745
Cc1cc(C#N)cc(C)c1Oc1nc(Nc2ccc(C#N)cc2)nc(N)c1Br [ETRAVIRINE]		0.0042			> 4.59	0.0037
COc1cc2nc(SCC(=O)Nc3cc([N+](=O)[O-])ccc3F)nc(Nc3c(Cl)cc(/C=C/C#N)cc3Cl)c2cc1OC		> 199		> 1	> 199	
COc1cc2nc([S+]([O-])CC(=O)Nc3ccc(S(N)(=O)=O)cc3)nc(Nc3c(Cl)cc(/C=C/C#N)cc3Cl)c2cc1OC (stereo not given)		19.3	> 21	> 10	> 189	9.19
COc1cc2nc([S+]([O-])CC(=O)Nc3cccc(Cl)c3)nc(Nc3c(Cl)cc(/C=C/C#N)cc3Cl)c2cc1OC (stereo not given)		0.313	1000	220	68.9	0.0687
COc1cc2nc([S+]([O-])CC(=O)Nc3cccc([N+](=O)[O-])c3)nc(Nc3c(Cl)cc(/C=C/C#N)cc3Cl)c2cc1OC (stereo not given)		0.423	≥ 308	≥ 197	≥ 83.2	0.27
COc1cc2nc(SCC(=O)Nc3ccc(S(N)(=O)=O)cc3)nc(Nc3c(Cl)cc(/C=C/C#N)cc3Cl)c2cc1OC		> 116		< 1	116	

Reference: ChEMBL document CHEMBL4312037, “Fragment hopping-based discovery of novel sulfinylacetamide-diarylpyrimidines (DAPYs) as HIV-1 nonnucleoside reverse transcriptase inhibitors” (Eur J Med Chem, 2020)
